Like-named read-outs stand apart in the source and are kept apart here.
Columns and labels:
[1] = test system: Aspergillus niger ATCC#16404; assay: MIC / synergy index test in 96 well microtiter plates; assay type: cell-based; conditions: ATCC16404, read-out: CB (MIC of compound B alone)
Procedure: (§1) Surfactants and biocides were evaluated for synergy by determining the synergy index (S.I.) of the combination. Synergy index was calculated based on minimum inhibitory concentrations (MIC) of two antimicrobial compounds (A and B) alone and in combinations. The tests organisms were Gram negative bacteria (Pseudomonas aeruginosa ATCC #15442),
(§2) Gram positive bacteria (Staphylococcus aureus ATCC #6538), yeast (Candida albicans ATCC#10203) and mold (Aspergillus niger ATCC#16404). Contact time for the bacteria was 24 and 48 hours, yeast was 48 and 72 hrs, and 3 and 7 days for mold. The test was carried out in 96 well microtiter plates. • Surf. A R^1O(CH2CH(CH3)o)5(CH2CH2O)9H, where R^1 is 2-ethylhexyl • Surf. D R^2O(CH2CH(CH3)o)3(CH2CH2O)5H • Surf. E R^2O(CH2CH(CH3)o)3(CH2CH2O)7H • In Surf. D and Surf. E, R^2 is a mixture of C8-C14 linear alkyl groups (70% C8-C10 linear alkyl and 30% C12-C14 linear alkyl)
(§3) The pH of the Triptic soy broth was 7.3 and the Potato dextrose broth was 5.1.
(§4) SI is calculated as follows: Ca/CA+Cb/CB=Synergy Index (“SI”)
(§5) Wherein: • CA=concentration of compound A in ppm, acting alone, which produced an end point (MIC of Compound A). • Ca=concentration of compound A in ppm, in the mixture, which produced an end point. • CB=concentration of compound B in ppm, acting alone, which produced an end point (MIC of Compound B). • Cb=concentration of compound B in ppm, in the mixture, which produced an end point. When the sum of Ca/CA and Cb/CB is greater than one, antagonism is indicated.

[2] = test system: Candida albicans ATCC#10203; assay: as above; assay type: cell-based; conditions: ATCC10203, 48 h, read-out: CB (MIC of compound B alone)
Procedure: as §1, §2, §3, §4, §5

[3] = test system: Pseudomonas aeruginosa ATCC #15442; assay: as above; assay type: cell-based; conditions: 1/10 TSB; for MIC: Pseudomonas aeruginosa, ATCC15442, 24 h, Phenoxyethanol alone, read-out: CB (MIC of compound B alone)
Procedure: as §1, §2, §3, §4, §5

[4] = test system: Staphylococcus aureus ATCC #6538; assay: as above; assay type: cell-based; conditions: 1/10 TSB; for MIC: Staphylococcus aureus, ATCC6538, 24 h, Phenoxyethanol alone
Procedure: as §1, §2, §3, §4, §5

[5] = Stability Testing of phenoxyethanol/surfactant solutions; assay type: physicochemical; conditions: 33% phenoxyethanol in 70% isopropanol with surfactant, PE:Surfactant 1:27
Procedure: A solution of phenoxyethanol in 70% (v/v) isopropanol was made and diluted with surfactant to give the desired ratios of biocide to surfactant. Additional 70% isopropanol was added as needed to give a 33 wt % solution of phenoxyethanol. The samples were split into three vials. One vial was stored at room temperature, one was stored at 40 C and one was stored at 50 C. […] Samples that were cloudy or highly discolored were determined to be unstable.

## OCCOc1ccccc1 [Phenoxyethanol, 2-phenoxy-1-ethanol]
[1]
  MIC: 4000 µg/mL
[2]
  MIC: 4000 µg/mL
[3]; series with Surf. A, inoculum 8.134E+07CFU/ml
  MIC: 5000 µg/mL
[3]; series with Surf. D, inoculum 1.16E+05CFU/ml
  MIC: 4000 µg/mL
[3]; series with Surf. E, inoculum 5.727E+07CFU/ml
  MIC: 4000 µg/mL
[4]; series with Surf. A, inoculum 1.156E-+06CFU/ml, read-out: CB (MIC of compound B alone)
  MIC: 8000 µg/mL
[4]; series with Surf. D, inoculum 1.808E+05, read-out: CB (MIC of compound B alone)
  MIC: 10000 µg/mL
[4]; series with Surf. E, inoculum 1.808E+06CFU/ml, read-out: CB (MIC of compound B alone)
  MIC: 8000 µg/mL

## CCCCC(CC)COCC(C)OCC(C)OCC(C)OCC(C)OCC(C)OCCOCCOCCOCCOCCOCCOCCOCCOCCO (centres unmarked) [Surf. A, R^1O(CH2CH(CH3)o)5(CH2CH2O)9H, where R^1 is 2-ethylhexyl]
[3]; Surf. A alone, 24 hrs, inoculum 8.134E+07CFU/ml
  CA (MIC of compound A alone): >20000 ppm
[4]; Surf. A alone, 24 hrs, inoculum 1.156E-+06CFU/ml
  CA (MIC of compound A alone): >20000 ppm

## POLYSORBATE 20
[5]; Day 2, 40° C.
  Stability (appearance): Slightly
[5]; Day 2, 50° C.
  Stability (appearance): Slightly
[5]; Day 7, 40° C.
  Stability (appearance): Slightly
[5]; Day 7, 50° C.
  Stability (appearance): Slightly
